ChEMBL document CHEMBL6109097, “Structure-based design of novel 2,4,5-trisubstituted pyrimidine derivatives as potent HIV-1 NNRTIs by exploiting the tolerant regions in NNTRIs binding pocket” (Eur J Med Chem, 2025)

Legend:
[1] = tested on: Human immunodeficiency virus 1; test: Antiviral activity against wild type HIV-1 IIIB infected in human MT4 cells assessed as protection against virus-induced cytopathic effect incubated for 5 days by MTT assay; assay type: functional, organism-based; settings: Human immunodeficiency virus 1, IIIB, MT4, 120 h
[2] = Cytotoxicity against human MT4 cells assessed as reduction in cell viability incubated for 5 days by MTT assay; assay type: toxicity, cell-based; settings: time 5 day
[3] = Selectivity index, ratio of CC50 for cytotoxicity against human MT4 cells assessed as reduction in cell viability to EC50 for antiviral activity against human MT4 cells assessed as protection against virus-induced cytopathic effect; assay type: toxicity, cell-based; settings: read-out: Ratio CC50/EC50
[4] = tested on: Human immunodeficiency virus 1; test: Antiviral activity against NNRTI-resistant HIV-1 harboring L100I mutant infected in human MT4 cells assessed as protection against virus-induced cytopathic effect incubated for 5 days by MTT assay; assay type: functional, organism-based; settings: Human immunodeficiency virus 1, MT4, 120 h
[5] = tested on: Human immunodeficiency virus 1; test: Antiviral activity against NNRTI-resistant HIV-1 harboring K103N mutant infected in human MT4 cells assessed as protection against virus-induced cytopathic effect incubated for 5 days by MTT assay; assay type: functional, organism-based; settings: Human immunodeficiency virus 1, MT4, 120 h
[6] = tested on: Human immunodeficiency virus 1; test: Antiviral activity against NNRTI-resistant HIV-1 harboring Y181C mutant infected in human MT4 cells assessed as protection against virus-induced cytopathic effect incubated for 5 days by MTT assay; assay type: functional, organism-based; settings: Human immunodeficiency virus 1, MT4, 120 h
[7] = tested on: Human immunodeficiency virus 1; test: Antiviral activity against NNRTI-resistant HIV-1 harboring Y188L mutant infected in human MT4 cells assessed as protection against virus-induced cytopathic effect incubated for 5 days by MTT assay; assay type: functional, organism-based; settings: Human immunodeficiency virus 1, MT4, 120 h
[8] = tested on: Human immunodeficiency virus 1; test: Antiviral activity against NNRTI-resistant HIV-1 harboring E138K mutant infected in human MT4 cells assessed as protection against virus-induced cytopathic effect incubated for 5 days by MTT assay; assay type: functional, organism-based; settings: Human immunodeficiency virus 1, MT4, 120 h
[9] = tested on: Human immunodeficiency virus 1; test: Antiviral activity against NNRTI-resistant HIV-1 harboring F227L/V106A double mutant infected in human MT4 cells assessed as protection against virus-induced cytopathic effect incubated for 5 days by MTT assay; assay type: functional, organism-based; settings: Human immunodeficiency virus 1, MT4, 120 h
[10] = tested on: Human immunodeficiency virus 1; test: Antiviral activity against NNRTI-resistant HIV-1 harboring RES056 mutant infected in human MT4 cells assessed as protection against virus-induced cytopathic effect incubated for 5 days by MTT assay; assay type: functional, organism-based; settings: Human immunodeficiency virus 1, MT4, 120 h
[11] = biological target: Human immunodeficiency virus type 1 reverse transcriptase (Human immunodeficiency virus 1, UniProt Q72547); test: Inhibition of wild type HIV-1 reverse transcriptase assessed as reduction in biotin-dUTP incorporation in cDNA preincubated with compound for 1 hr in presence of biotin-labeled dNTPs by ELISA
[12] = tested on: Human immunodeficiency virus 1; test: Potency index, ratio of efavirenz EC50 to test compound EC50 for antiviral activity against NNRTI-resistant HIV-1 harboring L100I mutant infected in human MT4 cells assessed as protection against virus-induced cytopathic effect incubated for 5 days by MTT assay; assay type: functional; settings: time 5 day
[13] = tested on: Human immunodeficiency virus 1; test: Potency index, ratio of efavirenz EC50 to test compound EC50 for antiviral activity against NNRTI-resistant HIV-1 harboring K103N mutant infected in human MT4 cells assessed as protection against virus-induced cytopathic effect incubated for 5 days by MTT assay; assay type: functional; settings: time 5 day
[14] = tested on: Human immunodeficiency virus 1; test: Potency index, ratio of efavirenz EC50 to test compound EC50 for antiviral activity against NNRTI-resistant HIV-1 harboring F227L/V106A double mutant infected in human MT4 cells assessed as protection against virus-induced cytopathic effect incubated for 5 days by MTT assay; assay type: functional; settings: time 5 day

Row | SMILES | EC50 [1] | CC50 at 120 h [2] | selectivity ratio [3] | EC50 [4] | EC50 [5] | EC50 [6] | EC50 [7] | EC50 [8] | EC50 [9] | EC50 [10] | IC50 [11] | Ratio EC50 [12] | Ratio EC50 [13] | Ratio EC50 [14]
1 | Cc1cc(/C=C/C#N)cc(C)c1Oc1nc(Nc2ccc(N3CCN(S(C)(=O)=O)CC3)c(C#N)c2)ncc1-c1cnc(F)nc1 | 39 nM | 30900 nM | 784 |  |  |  |  |  |  |  |  |  |  | 
2 | Cc1ccnc2c1NC(=O)c1cccnc1N2C1CC1 [NEVIRAPINE] |  | > 15000 nM |  | 1760 nM | 5740 nM | 6590 nM | > 1500 nM | 223 nM | 10300 nM | > 15000 nM |  |  |  | 
3 | Cc1cc(/C=C/C#N)cc(C)c1Oc1nc(Nc2ccc(N3CCN(S(C)(=O)=O)CC3)c(F)c2)ncc1-c1ccc(F)nc1 | 17 nM | > 202000 nM | > 11600 | 140 nM | 34 nM | 460 nM | 4540 nM | 51 nM | 350 nM | 8280 nM |  |  |  | 
4 | Cc1cc(/C=C/C#N)cc(C)c1Oc1nc(Nc2ccc(N3CCN(S(C)(=O)=O)CC3)c(F)c2)ncc1-c1cnc(N)nc1 | 7.3 nM | 6700 nM | 918 |  |  |  |  |  |  |  |  |  |  | 
5 | Cc1cc(/C=C/C#N)cc(C)c1Oc1nc(Nc2ccc(N3CCS(=O)(=O)CC3)c(C#N)c2)ncc1-c1cnc(N)nc1 | 31 nM | 800 nM | 22 |  |  |  |  |  |  |  |  |  |  | 
6 | Cc1cc(/C=C/C#N)cc(C)c1Oc1nc(Nc2ccc(N3CCN(S(C)(=O)=O)CC3)c(C#N)c2)ncc1-c1cccnc1 | 7.9 nM | 179000 nM | 22700 | 48 nM | 11 nM | 150 nM | 550 nM | 37 nM | 230 nM | 800 nM | 330 nM |  |  | 
7 | Cc1cc(/C=C/C#N)cc(C)c1Oc1nc(Nc2ccc(N3CCS(=O)(=O)CC3)c(F)c2)ncc1-c1ccc(N)nc1 | 3.5 nM | 800 nM | 239 |  |  |  |  |  |  |  |  |  |  | 
8 | Cc1cc(/C=C/C#N)cc(C)c1Oc1nc(Nc2ccc(N3CCS(=O)(=O)CC3)c(C#N)c2)ncc1-c1cccnc1 | 16 nM | 21800 nM | 1340 | 54 nM | 9.9 nM | 140 nM | 720 nM | 50 nM | 600 nM | 990 nM | 490 nM |  |  | 
9 | Cc1cc(/C=C/C#N)cc(C)c1Oc1nc(Nc2ccc(N3CCN(S(C)(=O)=O)CC3)c(F)c2)ncc1-c1ccc(N)nc1 | 5.8 nM | 75600 nM | 13000 | 43 nM | 6.6 nM | 180 nM | 700 nM | 29.8 nM | 180 nM | 100 nM | 270 nM |  |  | 
10 | Cc1cc(/C=C/C#N)cc(C)c1Oc1nc(Nc2ccc(N3CCN(S(C)(=O)=O)CC3)c(F)c2)ncc1-c1cccnc1 | 19 nM | > 41700 nM | > 2140 | 230 nM | 24 nM | 400 nM | 2030 nM | 57 nM | 640 nM | 3740 nM | 630 nM |  |  | 
11 | Cc1cc(/C=C/C#N)cc(C)c1Oc1nc(Nc2ccc(N3CCS(=O)(=O)CC3)c(F)c2)ncc1-c1cnc(N)nc1 | 6 nM | 1000 nM | 156 |  |  |  |  |  |  |  |  |  |  | 
12 | Cc1cc(/C=C/C#N)cc(C)c1Oc1nc(Nc2ccc(N3CCN(S(C)(=O)=O)CC3)c(C#N)c2)ncc1-c1cnc(N)nc1 | 7.2 nM | 38600 nM | 5390 | 27 nM | 6.7 nM | 42 nM | > 38600 nM | 39 nM | 96 nM | 280 nM |  |  |  | 
13 | Cc1cc(/C=C/C#N)cc(C)c1Oc1nc(Nc2ccc(N3CCN(S(C)(=O)=O)CC3)c(C#N)c2)ncc1-c1cncnc1 | 8.5 nM | > 206000 nM | > 24200 | 39 nM | 13 nM | 99 nM | 890 nM | 49 nM | 190 nM | 770 nM | 290 nM |  |  | 
14 | Cc1cc(/C=C/C#N)cc(C)c1Oc1nc(Nc2ccc(N3CCS(=O)(=O)CC3)c(F)c2)ncc1-c1cncnc1 | 5.4 nM | > 219000 nM | > 40500 | 90 nM | 6.7 nM | 170 nM | 1270 nM | 53 nM | 280 nM | 1350 nM | 200 nM |  |  | 
15 | Cc1cc(/C=C/C#N)cc(C)c1Oc1nc(Nc2ccc(N3CCS(=O)(=O)CC3)c(C#N)c2)ncc1-c1ccc(N)nc1 | 41 nM | 700 nM | 16 |  |  |  |  |  |  |  |  |  |  | 
16 | Cc1cc(/C=C/C#N)cc(C)c1Oc1nc(Nc2ccc(N3CCN(S(C)(=O)=O)CC3)c(C#N)c2)ncc1-c1ccc(F)nc1 | 26 nM | > 200000 nM | > 7620 |  |  |  |  |  |  |  |  |  |  | 
17 | Cc1cc(C#N)cc(C)c1Oc1nc(Nc2ccc(C#N)cc2)nc(N)c1Br [ETRAVIRINE] | 3.8 nM | > 4600 nM |  | 6.5 nM |  |  | 23 nM | 9 nM | 8.5 nM | 52 nM |  |  |  | 
18 | Cc1cc(/C=C/C#N)cc(C)c1Oc1nc(Nc2ccc(N3CCN(S(C)(=O)=O)CC3)c(F)c2)ncc1-c1cncnc1 | 16 nM | > 208000 nM | > 12900 | 110 nM | 28 nM | 200 nM | 2200 nM | 96 nM | 313 nM | 1160 nM | 490 nM |  |  | 
19 | O=C1Nc2ccc(Cl)cc2[C@@](C#CC2CC2)(C(F)(F)F)O1 [EFAVIRENZ] | 5.2 nM | > 6400 nM |  |  | 78 nM | 9.8 nM | 280 nM |  |  | 373 nM |  |  |  | 
20 | Cc1cc(/C=C/C#N)cc(C)c1Oc1nc(Nc2ccc(N3CCS(=O)(=O)CC3)c(F)c2)ncc1-c1ccc(F)nc1 | 960 nM | > 212000 nM | > 221 |  |  |  |  |  |  |  |  |  |  | 
21 | Cc1cc(/C=C/C#N)cc(C)c1Oc1nc(Nc2ccc(N3CCS(=O)(=O)CC3)c(C#N)c2)ncc1-c1ccc(F)nc1 | 27 nM | > 210000 nM | > 7830 |  |  |  |  |  |  |  |  |  |  | 
22 | Cc1cc(/C=C/C#N)cc(C)c1Oc1nc(Nc2ccc(N3CCS(=O)(=O)CC3)c(C#N)c2)ncc1-c1cncnc1 | 9.1 nM | 2400 nM | 258 |  |  |  |  |  |  |  |  |  |  | 
23 | Cc1cc(/C=C/C#N)cc(C)c1Oc1nc(Nc2ccc(N3CCN(S(C)(=O)=O)CC3)c(F)c2)ncc1-c1cnc(F)nc1 | 6.3 nM | 600 nM | 95 |  |  |  |  |  |  |  |  |  |  | 
24 | Cc1cc(/C=C/C#N)cc(C)c1Oc1nc(Nc2ccc(N3CCN(S(C)(=O)=O)CC3)c(C#N)c2)ncc1-c1ccc(N)nc1 | 6.4 nM | 161000 nM | 25300 | 9.4 nM | 6.2 nM | 34 nM | 250 nM | 30 nM | 30 nM | 210 nM | 410 nM | 3.7 | 12.6 | 7
25 | Cc1cc(/C=C/C#N)cc(C)c1Oc1nc(Nc2ccc(N3CCS(=O)(=O)CC3)c(F)c2)ncc1-c1cnc(F)nc1 | 13 nM | 28800 nM | 2270 | 51 nM | 13 nM | 120 nM | 6500 nM | 55 nM | 210 nM | 1590 nM | 350 nM |  |  | 
26 | Cc1cc(/C=C/C#N)cc(C)c1Oc1nc(Nc2ccc(N3CCS(=O)(=O)CC3)c(F)c2)ncc1-c1cccnc1 | 17 nM | 82800 nM | 4850 | 130 nM | 12 nM | 380 nM | 1560 nM | 64 nM | 420 nM | 4520 nM |  |  |  | 
27 | Cc1cc(/C=C/C#N)cc(C)c1Oc1nc(Nc2ccc(N3CCS(=O)(=O)CC3)c(C#N)c2)ncc1-c1cnc(F)nc1 | 220 nM | 23900 nM | 110 |  |  |  |  |  |  |  |  |  |  | 
